Reference: US5373020A, “Substituted 5-(2-((2-aryl-2-hydroxyethyl)amino)propyl)-1,3-benzodioxoles” (American Cyanamid Company, priority 1993, dated 1994)
Where a name gives a salt, the structure may show the parent alone.

Experiments:
β1-receptors = target: T1, β1-receptors (Cavia porcellus, UniProt H0W3H1); test: Effect on heart rate of isolated right atria (β1-effect); design: species or system guinea pig
T1 construct: from tissue; host or cells: guinea pig right atria
Description: (§1) β-Adrenergic receptors can be divided into β1, β2 and β3 -subtypes. Activation of β1 -receptors invokes increases in heart rate while activation of β2 -receptors stimulates glycogen breakdown in muscle and thereby prevents glycogen synthesis. Activation of β3 -receptors stimulates lipolysis (the breakdown of adipose tissue triglycerides to glycerol and free fatty acids), and thereby promotes the loss of fat mass.
Selectivity of a compound was determined using the following procedures. The effect on heart rate (β1 -effect) was determined using isolated right atria. […] The right atria were dissected and clamped at one end to a tissue holder and electrode assembly (MRA Corp.) and tied at the other end to a force-displacement transducer (Gould-Statham, Burco). The tissues were maintained at 32° C. in a 50 ml capacity glass chamber (MRA Corp.) preloaded with 0.5 g tension. Heart rate was monitored by a Grass polygragh. […] The increase in heart rate was calculated and considered to be the maximum response for that tissue. The tissues were then washed and allowed to equilibrate for 90 minutes. Cumulative concentration-response curves were then determined for each compound or vehicle. All responses were measured 5 minutes post-exposure.

fa/fa rats = test: Change in weight and food consumption, compound in chow, obese rats; type: in vivo, rat (fa/fa)
Description: (§2) The compounds of this invention were tested for hypoglycemic and anti-obesity activity according to the following procedure.
(§3) Obese mice (C57 B1/6J (ob/ob)), and/or diabetic mice (C57 B1/KsJ (db/db)) were obtained from Jackson Laboratories, Bar Harbor, Maine. Obese rats (fa/fa) were obtained from Charles River Laboratories, Wilmington, Mass. Obese mice were 8 weeks of age and diabetic mice were 9 weeks of age at the start of the test. Obese rats were 12-14 weeks of age at the start.
(§4) The test compounds were dissolved in methanol, mixed with powdered Purina rodent chow on a weight of compound to weight of chow basis and thoroughly dried.
(§5) Groups of 6 control mice or rats received vehicle (methanol) treated chow.
Groups of 6 test rats were fed 25 g of chow per day for one month. Except for the first day or two, they consumed all their food each day. When these animals are fed ad libitum, they consume 26 g of chow per day and the compounds have no effect on food consumption.
(§6) The mice or rats were weighed before the first treatment and once at the end of each indicated treatment period.

β2-receptors = target: T2, β2-receptors (Mus musculus, UniProt P18762); test: Inhibition of insulin-mediated incorporation of 14C-glucose into glycogen in isolated soleus muscle (β2-effect)
T2 construct: Soleus muscle from mice were dissected; from tissue; host or cells: mouse soleus muscle
Description: as §1
The β2 -effect of the compounds was determined by their ability to inhibit the insulin-mediated incorporation of ^14 C-glucose into glycogen in isolated muscle. Soleus muscle from mice were dissected, tied at each end, and placed in a clamp to maintain tension. The clamped muscle was added to a vial that contained 2 ml of KHB with 1.5% bovine serum albumin, 0.3 mU/ml insulin, 5 mM (U^-14 C) glucose, and the appropriate additions of compound or vehicle. The vial was gassed with 95% O2 -5% CO2, capped, and the tissue incubated for one hour in a rotating water bath at 37° C. The muscle was then removed, rinsed in ice-cold saline, blotted and weighed. It was then added to 1 ml of 30% KOH containing 5 mg/ml of oyster glycogen, boiled for 10 minutes, and 0.4 ml of 2% Na2 SO4 and 3.2 ml of 100% ethanol added. After standing overnight at 4° C., the glycogen was pelleted by centrifugation, washed once with 66% ethanol, and repelleted. The pellet was dissolved in 1 ml of water and the amount of radioactivity present determined by liquid scintillation.

ob/ob mice [1] = test: Change in weight and food consumption, compound in chow, obese mice; type: in vivo, mouse (C57 B1/6J ob/ob)
Description: as §2, §3, §4, §5
(§7) Groups of 6 test mice were fed ad libitum for up to seven weeks and food consumption was measured daily by weighing the food bins before and after the addition of fresh chow. Thus, a 40 g mouse, fed the test compound at a concentration of 0.02 percent of the diet, would receive a dose of 20 mg/kg/day if it ate 4 g of chow per day.
as §6

db/db mice = test: Plasma glucose, compound in chow, diabetic mice; type: in vivo, mouse (C57 B1/KsJ db/db)
Description: as §2, §3, §4, §5, §7, §6
(§8) Blood samples were collected before the first treatment and once at the end of each indicated treatment period by retro-orbital puncture using heparinized capillary tubes.
(§9) Plasma was separated by centrifugation in a Beckman microfuge for 5 minutes. Plasma glucose concentrations were determined with the Beckman glucose analyzer which uses a glucose oxidase method.

ob/ob mice [2] = test: Plasma glucose, compound in chow, obese mice; type: in vivo, mouse (C57 B1/6J ob/ob)
Description: as §2, §3, §4, §5
[…] Thus, a 40 g mouse, fed the test compound at a concentration of 0.02 percent of the diet, would receive a dose of 20 mg/kg/day if it ate 4 g of chow per day.
as §6, §8, §9

[3] = dose 0.002 % wt of chow, week 1
[4] = dose 0.002 % wt of chow, week 2
[5] = dose 0.002 % wt of chow, week 3
[6] = dose 0.002 % wt of chow, week 4
[7] = dose 0.0005 % wt of chow, week 1
[8] = dose 0.0005 % wt of chow, week 4
[9] = dose 0.005 % wt of chow, week 1
[10] = dose 0.005 % wt of chow, week 4
[11] = dose 0.0005 % wt of chow, week 0 (before treatment)
[12] = dose 0.002 % wt of chow, week 0 (before treatment)
[13] = dose 0.005 % wt of chow, week 0 (before treatment)

T1 sequence (H0W3H1 1-470): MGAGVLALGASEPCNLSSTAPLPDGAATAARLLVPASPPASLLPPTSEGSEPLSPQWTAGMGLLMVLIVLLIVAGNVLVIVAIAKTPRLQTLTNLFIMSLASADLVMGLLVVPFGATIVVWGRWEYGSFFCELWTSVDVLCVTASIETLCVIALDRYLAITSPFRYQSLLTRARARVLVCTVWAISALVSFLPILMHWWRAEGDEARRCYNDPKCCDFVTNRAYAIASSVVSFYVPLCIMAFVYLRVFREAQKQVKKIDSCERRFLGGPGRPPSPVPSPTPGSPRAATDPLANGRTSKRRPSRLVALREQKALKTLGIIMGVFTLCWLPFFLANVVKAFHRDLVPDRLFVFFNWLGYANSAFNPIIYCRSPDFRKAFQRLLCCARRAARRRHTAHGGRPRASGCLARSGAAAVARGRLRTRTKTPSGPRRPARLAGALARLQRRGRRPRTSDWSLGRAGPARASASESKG
T2 sequence (P18762 whole entry): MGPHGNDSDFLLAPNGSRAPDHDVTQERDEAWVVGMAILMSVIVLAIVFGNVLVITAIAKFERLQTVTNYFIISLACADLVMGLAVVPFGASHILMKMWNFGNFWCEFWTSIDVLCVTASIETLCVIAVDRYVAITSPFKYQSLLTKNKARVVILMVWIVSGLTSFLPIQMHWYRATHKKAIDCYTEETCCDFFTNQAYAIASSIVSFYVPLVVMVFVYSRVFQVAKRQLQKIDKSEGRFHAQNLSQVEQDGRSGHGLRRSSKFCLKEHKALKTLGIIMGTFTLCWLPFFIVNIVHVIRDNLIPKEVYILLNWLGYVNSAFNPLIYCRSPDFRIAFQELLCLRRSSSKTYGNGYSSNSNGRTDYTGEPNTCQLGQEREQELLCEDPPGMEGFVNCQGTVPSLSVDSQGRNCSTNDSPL

SMILES: COC(=O)C1(C(=O)OC)Oc2ccc(C[C@@H](C)NC[C@H](O)c3cccc(Cl)c3)cc2O1 (stereo in doubt) [CL1, (R* R*)-(±)-5-(2-((2-(3-chlorophenyl)-2-hydroxyethyl)amino)propyl)-1,3-benzodioxole-2,2-dicarboxylic acid, dimethyl ester hydrobromide]
- EC50 (β1-receptors): 14 nM
- Average Daily Food Consumption (fa/fa rats; dose 0.0006 % wt of chow): 25 g/animal
- Change in weight (fa/fa rats; dose 0.0006 % wt of chow, week 1): 14 grams
- Change in weight (fa/fa rats; dose 0.0006 % wt of chow, week 2): 20 grams
- Change in weight (fa/fa rats; dose 0.0006 % wt of chow, week 3): 27 grams
- Change in weight (fa/fa rats; dose 0.0006 % wt of chow, week 4): 26 grams
- Average Daily Food Consumption (fa/fa rats; dose 0.002 % wt of chow): 25 g/animal
- Change in weight (fa/fa rats; [3]): 1 grams
- Change in weight (fa/fa rats; [4]): 2 grams
- Change in weight (fa/fa rats; [5]): 3 grams
- Change in weight (fa/fa rats; [6]): 4 grams
- Average Daily Food Consumption (fa/fa rats; dose 0.006 % wt of chow): 25 g/animal
- Change in weight (fa/fa rats; dose 0.006 % wt of chow, week 1): 10 grams
- Change in weight (fa/fa rats; dose 0.006 % wt of chow, week 2): 4 grams
- Change in weight (fa/fa rats; dose 0.006 % wt of chow, week 3): -15 grams
- Change in weight (fa/fa rats; dose 0.006 % wt of chow, week 4): -8 grams
- EC50 (β2-receptors): 800 nM
- Average Daily Food Consumption (ob/ob mice [1]; dose 0.0005 % wt of chow): 5.6 g/animal
- Change in weight (ob/ob mice [1]; [7]): 0.5 grams
- Change in weight (ob/ob mice [1]; dose 0.0005 % wt of chow, week 2): 2.2 grams
- Change in weight (ob/ob mice [1]; dose 0.0005 % wt of chow, week 3): 3.2 grams
- Change in weight (ob/ob mice [1]; [8]): 5.2 grams
- Average Daily Food Consumption (ob/ob mice [1]; dose 0.002 % wt of chow): 5.6 g/animal
- Change in weight (ob/ob mice [1]; [3]): -0.3 grams
- Change in weight (ob/ob mice [1]; [4]): 1.1 grams
- Change in weight (ob/ob mice [1]; [5]): 1.6 grams
- Change in weight (ob/ob mice [1]; [6]): 3.2 grams
- Average Daily Food Consumption (ob/ob mice [1]; dose 0.005 % wt of chow): 5.8 g/animal
- Change in weight (ob/ob mice [1]; [9]): -1.1 grams
- Change in weight (ob/ob mice [1]; dose 0.005 % wt of chow, week 2): -0.7 grams
- Change in weight (ob/ob mice [1]; dose 0.005 % wt of chow, week 3): -0.2 grams
- Change in weight (ob/ob mice [1]; [10]): 1.6 grams
- Plasma Glucose Levels (db/db mice; [11]): 452 mg/100 ml
- Plasma Glucose Levels (db/db mice; [7]): 162 mg/100 ml
- Plasma Glucose Levels (db/db mice; dose 0.0005 % wt of chow, week 5): 164 mg/100 ml
- Plasma Glucose Levels (db/db mice; dose 0.0005 % wt of chow, week 7): 17 mg/100 ml
- Plasma Glucose Levels (db/db mice; [12]): 453 mg/100 ml
- Plasma Glucose Levels (db/db mice; [3]): 151 mg/100 ml
- Plasma Glucose Levels (db/db mice; dose 0.002 % wt of chow, week 5): 150 mg/100 ml
- Plasma Glucose Levels (db/db mice; dose 0.002 % wt of chow, week 7): 16 mg/100 ml
- Plasma Glucose Levels (db/db mice; [13]): 447 mg/100 ml
- Plasma Glucose Levels (db/db mice; [9]): 148 mg/100 ml
- Plasma Glucose Levels (db/db mice; dose 0.005 % wt of chow, week 5): 138 mg/100 ml
- Plasma Glucose Levels (db/db mice; dose 0.005 % wt of chow, week 7): 18 mg/100 ml
- Plasma Glucose Levels (ob/ob mice [2]; [11]): 270 mg/100 ml
- Plasma Glucose Levels (ob/ob mice [2]; [7]): 164 mg/100 ml
- Plasma Glucose Levels (ob/ob mice [2]; [8]): 179 mg/100 ml
- Plasma Glucose Levels (ob/ob mice [2]; [12]): 276 mg/100 ml
- Plasma Glucose Levels (ob/ob mice [2]; [3]): 150 mg/100 ml
- Plasma Glucose Levels (ob/ob mice [2]; [6]): 156 mg/100 ml
- Plasma Glucose Levels (ob/ob mice [2]; [13]): 237 mg/100 ml
- Plasma Glucose Levels (ob/ob mice [2]; [9]): 143 mg/100 ml
- Plasma Glucose Levels (ob/ob mice [2]; [10]): 157 mg/100 ml
